Data reported in BindingDB's records for patent US20250304587 (Jiangsu Tasly Diyi Pharmaceutical, 2025).

Target: Cytochrome P450 2C19 (Homo sapiens, UniProt P33261)
Assay: Evaluation of Compound Inhibition of Cytochrome P450
Method: Enzymatic experiments were performed to quantify the inhibition of CYP450 enzyme activity of each isoform of CYP450 by small molecule inhibitors through fluorescence generated by the oxidation of the substrate by cytochrome P450. […] The Solution B composition used for the experiment was: 40 U/mL G6PDH (Sigma-aldrich, Cat #G6378). The substrate mix was 0.05× Solution A, 0.01× Solution B, 50 mM Potassium Phosphate, 0.01 mM BOMCC/0.01 mM EOMCC/0.001 mM DBOMF.

Cytochrome P450 2C19, sequence (P33261 whole entry): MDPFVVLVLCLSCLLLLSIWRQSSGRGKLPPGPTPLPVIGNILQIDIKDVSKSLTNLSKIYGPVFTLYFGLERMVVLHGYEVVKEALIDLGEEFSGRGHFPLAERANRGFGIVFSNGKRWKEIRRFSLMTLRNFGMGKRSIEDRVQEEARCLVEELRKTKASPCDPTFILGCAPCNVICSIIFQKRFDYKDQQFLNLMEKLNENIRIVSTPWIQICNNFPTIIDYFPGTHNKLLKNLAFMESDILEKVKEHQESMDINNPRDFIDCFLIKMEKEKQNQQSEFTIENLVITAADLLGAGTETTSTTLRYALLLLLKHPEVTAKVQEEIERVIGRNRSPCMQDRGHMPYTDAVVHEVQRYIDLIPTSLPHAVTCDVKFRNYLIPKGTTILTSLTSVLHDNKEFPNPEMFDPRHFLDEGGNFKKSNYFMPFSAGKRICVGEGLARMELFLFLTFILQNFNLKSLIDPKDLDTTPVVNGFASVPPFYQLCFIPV

Structure (SMILES)	IC50 [µM]
C=CCn1c(=O)c2cnc(Nc3ccc(N4CCC5(CCN(C)CC5)CC4)cc3)nc2n1-c1ccc2c(n1)[C@](C)(O)C1(CC2)CC1 (racemic) [US20250304587, Compound 44]	1 to 10
C=CCn1c(=O)c2cnc(Nc3ccc(N4CC5CC(C4)N5C)cc3)nc2n1-c1ccc2c(n1)[C@@](C)(O)C1(CC2)CC1 [US20250304587, Compound 7a]	1 to 10
